Source: US11759480B2, “Compositions and methods for CAR T cell therapy” (ENDOCYTE, INC., priority 2017, dated 2023)

Legend:
[1] = test system: MDA-MB-231 solid tumor xenografts; experiment: Control of CAR T cell activation in vivo: break, FA competitor or both (Example 19)
Method: Five study groups were designed to test whether anti-FITC CAR T cell activation can be controlled via temporal termination of FITC-ligands, by administering a competitor small molecule, or a combination approach of both discontinuing of FITC-ligands and/or administering an FA competitor. The first group was treated by administering anti-FITC CAR T cell with phosphate-buffered saline (PBS) as a negative control. Every other day over the course of the study, the second, third, fourth and fifth groups were treated with anti-FITC CAR T cell mixed with FITC-Folate (500 nmole/kg). […] Mouse bodyweight was measured regularly to test for toxicity.

[2] = test system: MDA-MB-231 solid tumor xenografts; format: in vivo
Method: MDA-MB-231 cells were subcutaneously injected into the shoulders of NSG mice (Jackson Laboratory) to establish solid tumor xenografts. When tumor volume reached around 50-100 mm^3, anti-FITC CAR T cells (15×10^6 cells) were intravenously introduced into tumor-bearing mice. Twenty NSG mice were divided into four study groups (5 animals in each group). The first group was treated with anti-FITC CAR T cells with phosphate-buffered saline (PBS) as a negative control. The second, third, and fourth groups were treated with anti-FITC CAR T cells with FITC-Folate (500 nmole/kg) every other day. Once a significant toxicity (e.g. serious loss of body weight) was detected, these groups were treated with either: continued FITC-Folate administration (second group); discontinuation of FITC-Folate administration until the mice recovered (third group); or a mixture of 100-fold excess of EC0923 (i.e. free folate) and FITC-Folate until the mice recovered (fourth group). The body weight was measured regularly to monitor toxicity. In addition, the blood concentration of interferon (IFN)-gamma for each treatment group was measured to monitor the degree of anti-FITC CAR T activation. Finally, tumor volume was measured to identify anti-tumor efficacy in each treatment group.

MDA-MB-231 tumors [3] = experiment: Rescue ability of competitors during CAR T cell treatment (Example 23); format: in vivo, mice; details: for time until mice looked normal / time until mice started to move and look for food / time until mice were active again: one i.v. dose 10 μmoles/kg at sCRS
Method: When severe cytokine release syndrome was observed, one dose of EC0923 (folate) or untethered fluorescein (both at 10 μmoles/kg) was introduced intravenously to rescue mice (FIG. 16). Mice with one dose of EC0923 or fluorescein started to move and look for food after 4 hours, were active again in 24 hours, and looked normal in 4 days. EC17 administration was then continued. Control mice without EC0923 or fluorescein didn't move after 4 hours, and had to be euthanized because of the sickness. […] All mice tested for cytokine production were injected with 8 million CAR-T cells.

[4] = test system: severe cytokine release syndrome in mice bearing tumors; experiment: Rescue ability of EC0923 during CAR T cell treatment (Example 18); format: in vivo
Method: CAR T cells were introduced into mice bearing tumors and EC17 was also introduced (i.v.) three times per week. When severe cytokine release syndrome was observed, one dose of EC0923 at 10 μmoles/kg was introduced to rescue mice. Mice were monitored for 4 more days, and some were euthanized to evaluate organs. Mice with one dose of EC0923 started to move and look for food after 4 hours, and their spleens and livers were red. Control mice without EC0923 didn't move after 6 hours, and their spleens and livers were pale. Mice with EC0923 treatment were active again in 24 hours and expected to survive, and were put back to a normal EC17 dosing schedule. Control mice without EC0923 started to move a little in 24 hours, but had to be euthanized to prevent animal suffering. Mice with EC0923 looked normal in 4 days. One of the mice was euthanized and found to have normal colored spleen and liver. […] Other remaining mice with EC0923 were given routine EC17 dosing three times per week, and their tumors disappeared in 4 weeks.

MDA-MB-231 tumors [5] = experiment: CAR-T number in blood after rescue with EC0923 or fluoresceinamine (Example 31); format: in vivo, NSG mice; details: for earliest time of increased CAR-T count in blood: 10 umol/kg i.v.; for CAR-T number in blood: 10 umol/kg i.v. at sCRS
Method: EC17/CAR-T therapy strategy is controllable through bridge displacement by either free folate or free fluorescein. […] Mice from three groups were then euthanized at 8, 12, 24 and 48 hours post injection of EC0923 or fluoresceinamine, and their blood samples were analyzed for CAR-T cell number and cytokine levels. CAR-T cells in blood were stained with anti-human CD45 antibody labeled with APCeF780 (Biolegend) and counted by FACS. CountBright™ Absolute Counting Beads (ThermoFisher Scientific) were mixed into the samples and used as a reference for cell counting.

[6] = test system: anti-fluorescein scFv on CAR T cells; experiment: Competitive binding assay against FITC-Alexa647 on CAR T cells; details: 1 μM competing ligand versus FITC-Alexa647 10 nM
Method: To examine the ability of bridge molecules to bind anti-fluorescein scFv on CAR T cells, a competitive binding assay was developed. Measurement of the fluorescein signal from CAR T cell bound bridges could not be used due to the overlap of its fluorescence with that of the GFP expressing CAR T cells. For this purpose, FITC-Alexa647 (10 nM) was allowed to bind anti-fluorescein CAR T cells in the absence or presence of excess (1 μM) competing ligand (i.e. FITC-folate, FITC-DUPA, FITC-CA9) for 1 h at room temperature. After incubation, anti-fluorescein CAR T cells were washed 3× with PBS to remove unbounded FITC-Alexa647, and the washed cells were analyzed for Alexa647 fluorescence by flow cytometry.
Fluorescein-folate (FITC-folate) and fluorescein-PSMA (FITC-DUPA) were synthesized as previously described. To examine the ability of these bridge molecules to bind anti-fluorescein scFv on CAR T cells, a competitive binding assay had to be developed, because measurement of the fluorescein signal from CAR T cell bound bridge could not be used due to the overlap of its fluorescence with that of the GFP expressing CAR T cells. For this purpose, FITC-Alexa647 (10 nM) was allowed to bind anti-fluorescein CAR T cells in the absence or presence of excess (1 μM) competing ligand (i.e. FITC-folate) for 1 h at room temperature. After incubation, anti-fluorescein CAR T cells were washed 3× with PBS to remove unbounded FITC-Alexa647, and the washed cells were analyzed for Alexa647 fluorescence by flow cytometry. For analysis of FITC-folate to binding to folate receptor, FR positive KB cells were incubated with FITC-folate (100 nM) in the absence or presence of excess (10 μM) free folate (i.e. as a competitive ligand). After washing samples with PBS (3 times), samples were analyzed by flow cytometry for fluorescein-folate binding.

[7] = test system: PSMA+ MDA-MB-231 and CA9+ MDA-MB-231; experiment: Two tumors treated with cocktail of bridge molecules in vivo (Example 42); set-up: species or system NSG mice; details: only one of the bridges infused
Description: In order to evaluate whether a cocktail of bridge molecules can eliminate two tumors expressing orthogonal antigens, we established two different tumor models. As a first tumor model, each of PSMA+ MDA-MB-231 and CA9+ MDA-MB-231 were implanted into NSG mice at two different locations (i.e. right flank: CA9+ MDA-MB-231, left flank: PSMA+ MDA-MB-231). For the second tumor model, PSMA+ MDA-MB-231 and CA9+ MDA-MB-231 were pre-mixed at a 1:1 ratio and implanted at one location.
PSMA+ MDA-MB-231 and CA9+ MDA-MB-231 were implanted into NSG mice (Jackson Laboratory, ME) either at two different locations (i.e. right flank: PSMA+ MDA-MB-231, left flank: CA9+ MDA-MB-231) or one location after two tumor cells were pre-mixed (i.e. 50% of PSMA+ MDA-MB-231 and 50% of CA9+ MDA-MB-231). When tumors reached ˜100 mm3 in size, anti-fluorescein CAR T cells (8×10^6) were injected plus FITC-DUPA, FITC-CA9 or both. Tumors were measured every other day with calipers, and tumor volume was calculated according to the equation: Tumor volume=½(L×W2) where L is the longest axis of the tumor and W is the axis perpendicular to L. Results are shown in FIGS. 49A and 49B.

MDA-MB-231 tumors [8] = experiment: Comparison of three rescue reagents (Example 32); details: for order of sCRS severity (from worst to least): 10 hours after rescue, Leucovorin 10, folic acid 10, sodium fluorescein 260 umol/kg; for tumor outcome of rescued mice: single rescue dose, EC17 continued
Method: To evaluate whether mice with FITC-CAR-T therapy related sCRS can be rescued by using competitors which may displace EC17 from either FITC-CAR-T or FR+ tumor cells, 49 NSG mice bearing MDA-MB-231 tumors (150-250 mm3) were administered with excess FITC-CAR-T cells (8 million), 36 of them were then dosed with 500 nmol/kg EC17 48 hours post CAR-T administration, 6 of them were not dosed with EC17 and were used as “No EC17” control, and 7 of them were dosed with 260 umol/kg sodium fluorescein (no EC17 but Fluorescein) to test its toxicity. […] Each group was i.v. injected with 10 umol/kg of Leucovorin, or 10 umol/kg folic acid, or 260 umol/kg sodium fluorescein, or nothing as an un-rescued control. […] Mouse body weight changes were also monitored as the indication of toxicity. […] To evaluate whether the rescue injections affect the anti-tumor activity of FITC-CAR-T cells, these mice were dosed with 500 nmol/kg EC17 twice per week (days 9, 11, 15, 18, 22, 25, etc.) and the tumor size was monitored.

MDA-MB-231 cells = experiment: Control of CRS with bridge molecules in vivo (Example 43); set-up: species or system NSG mice
Method: Mice were maintained on folic acid-deficient diet (TD.95247, Envigo) in order to reduce the level of folic acid in mice to a physiological levels found in humans. Tumors were measured every other day with calipers, and tumor volume was calculated according to equation: Tumor volume=½(L×W^2) where L is the longest axis of the tumor and W is the axis perpendicular to L. Mouse blood was also collected to measure cytokine levels (e.g. IL-2, IL-6, IFNγ, and TNFα) using LEGENDplex bead-based immunoassay (Biolegend, CA) and systemic toxicity was monitored by measuring body weight loss. All animal care and use followed by National Institutes of Health (NIH) guidelines and all experimental protocols were approved by the Purdue Animal Care and Use Committee.

MDA-MB-231 = experiment: Effect of Folate-FITC on CAR-T cell number and serum cytokines (Example 21); format: in vivo, NSG mice; details: 500 nmole/kg, 10^7 CAR T cells, Day 6
Method: The triple negative human breast cancer cell line (i.e. MDA-MB-231) was subcutaneously implanted into the shoulders of immunodeficient (e.g. NSG) mice. When tumor volume reached around 50-100 mm^3, anti-FITC CAR T cells (10^7 cells) were intravenously introduced with either FITC-folate (500 nmole/kg) or PBS. To monitor CAR T cell proliferation and pro-inflammatory cytokine production, mice blood was collected at Day 6. CAR T cell proliferation was evaluated by staining a whole blood sample with anti-human CD3 antibody (Biolegned) and detecting GFP expression on the CD3 positive T cell population. Pro-inflammatory cytokine production was measured by a bead-based immunoassay (Legendplex kit from biolegend).

[9] = within 3 hours, 6 μmole/kg free fluorescein
[10] = 100-fold excess on days 4 and 6

Nc1nc(=O)c2nc(CNc3ccc(C(=O)N[C@@H](CCC(=O)O)C(=O)O)cc3)cnc2[nH]1 [EC0923]
control of CAR T cell mediated toxicity ([1]; 100-fold excess with FITC-Folate (FITC-Folate+FA Competitor)): able to control the degree of CAR T cell activation to alleviate CAR T cell mediated toxicity | control of CAR T cell mediated toxicity ([1]; termination of FITC-Folate plus excess free folic acid (Break+FA Competitor)): better efficacy in decreasing CAR T cell mediated toxicity compared to each approach alone | IFN-gamma blood concentration ([2]; competitor group): decreased | survival of mice at the first week of treatment ([2]; competitor group: 100-fold excess of free folate mixed with FITC-Folate at day 4 and day 6): all of the mice in both the break and competitor groups survived

Nc1nc2ncc(CNc3ccc(C(=O)N[C@@H](CCCN[C@H](CC(=O)O)C(=O)N[C@H](CC(=O)O)C(=O)O)C(=O)O)cc3)nc2c(=O)[nH]1 [EC0923]
time until mice looked normal (MDA-MB-231 tumors [3]): 4 days | time until mice started to move and look for food (MDA-MB-231 tumors [3]): 4 h | time until mice were active again (MDA-MB-231 tumors [3]): 24 h | tumor outcome four weeks later (MDA-MB-231 tumors [3]; rescue treatment, EC17 continued): tumors were eliminated | time until mice looked normal ([4]; one dose 10 μmoles/kg at sCRS): 4 days | time until mice started to move and look for food ([4]; one dose 10 μmoles/kg at sCRS): 4 h | time until mice were active again ([4]; one dose 10 μmoles/kg at sCRS): 24 h | time until tumors disappeared ([4]; rescued mice, routine EC17 dosing three times per week resumed): 4 weeks | complete response ([2]; competitor group (100-fold excess EC0923 + FITC-Folate)): 75% | earliest time of increased CAR-T count in blood (MDA-MB-231 tumors [5]): 6 h | CAR-T number in blood (MDA-MB-231 tumors [5]): increase of CAR-T number in blood circulation

O=C(O)CC[C@H](NC(=O)N[C@@H](CCC(=O)NCCCCCCCC(=O)N[C@@H](Cc1ccccc1)C(=O)N[C@@H](Cc1ccccc1)C(=O)NCCNC(=S)Nc1ccc(-c2c3ccc(=O)cc-3oc3cc(O)ccc23)c(C(=O)O)c1)C(=O)O)C(=O)O [FITC-DUPA]
binding to CAR-expressing T cells [6]: able to bind to the CAR-expressing T cells | growth of tumor expressing unmatched antigen [7]: continuously grew

Nc1nc2c(c(=O)[nH]1)N(C=O)C(CNc1ccc(C(=O)N[C@@H](CCC(=O)O)C(=O)O)cc1)CN2 (some centres unmarked) [Leucovorin]
order of sCRS severity (from worst to least) (MDA-MB-231 tumors [8]): no rescue group>leucovorin rescue group>folic acid rescue group>sodium fluorescein rescue group>no EC17 group | tumor outcome of rescued mice (MDA-MB-231 tumors [8]): complete response

O=C1OC2(c3ccc(O)cc3Oc3cc(O)ccc32)c2ccccc21 [fluorescein, reference compound]
time until mice looked normal (MDA-MB-231 tumors [3]): 4 days | time until mice started to move and look for food (MDA-MB-231 tumors [3]): 4 h | time until mice were active again (MDA-MB-231 tumors [3]): 24 h | time to decrement of plasma IFNγ (MDA-MB-231 cells; post fluorescein injection): 6 h | decrease of plasma IL-2 (MDA-MB-231 cells; [9]): > 50% | decrease of plasma IL-6 (MDA-MB-231 cells; [9]): > 50% | decrease of plasma TNF-α (MDA-MB-231 cells; [9]): > 50%

Nc1ccc2c(c1)C(=O)OC21c2ccc(O)cc2Oc2cc(O)ccc21 [fluoresceinamine]
CAR-T displacement compared with EC0923 (MDA-MB-231 tumors [5]; 10 umol/kg): more CAR-T displacement than folate | earliest time of increased CAR-T count in blood (MDA-MB-231 tumors [5]): 6 h | CAR-T number in blood (MDA-MB-231 tumors [5]): increase of CAR-T number in blood circulation

Nc1nc2ncc(CNc3ccc(C(=O)N[C@@H](CCC(=O)O)C(=O)O)cc3)nc2c(=O)[nH]1 [folic acid, reference compound]
IFNγ level (MDA-MB-231 cells; [10]): reduced the level of IFNγ | body weight (MDA-MB-231 cells; [10]): rapidly prevented the continuous weight loss | therapeutic potency of CAR T cell therapy (MDA-MB-231 cells; [10]): enhanced the therapeutic potency | order of sCRS severity (from worst to least) (MDA-MB-231 tumors [8]): no rescue group>leucovorin rescue group>folic acid rescue group>sodium fluorescein rescue group>no EC17 group | tumor outcome of rescued mice (MDA-MB-231 tumors [8]): complete response

FITC-Folate [EC17]
anti-FITC CAR T cell proliferation in blood (MDA-MB-231): proliferated significantly | pro-inflammatory cytokines (IL-2, TNF-α, IFN-γ) (MDA-MB-231): significantly produced

FITC-PEG2-CA9 [FITC-CA9]
binding to CAR-expressing T cells [6]: able to bind to the CAR-expressing T cells | growth of tumor expressing unmatched antigen [7]: continuously grew
